The values that follow come from article PMC5187517, “Pectocin M1 (PcaM1) Inhibits Escherichia coli Cell Growth and Peptidoglycan Biosynthesis through Periplasmic Expression” (Antibiotics, 2016).

The assay concerns the target T1, pectocin M1 (PcaM1) (Pectobacterium carotovorum, UniProt C6DJ69).
T1 construct: gene PC1_2303; full-length, C-terminal Arg-Ser-His6 tag kept, initiator Met lost; expressed in E. coli C43(DE3) from pMLD365; monomer; theoretical mass 30,401 Da with tag (observed m/z 30,266); plant-like ferredoxin domain plus cytotoxic domain
T1 sequence (C6DJ69 2-268): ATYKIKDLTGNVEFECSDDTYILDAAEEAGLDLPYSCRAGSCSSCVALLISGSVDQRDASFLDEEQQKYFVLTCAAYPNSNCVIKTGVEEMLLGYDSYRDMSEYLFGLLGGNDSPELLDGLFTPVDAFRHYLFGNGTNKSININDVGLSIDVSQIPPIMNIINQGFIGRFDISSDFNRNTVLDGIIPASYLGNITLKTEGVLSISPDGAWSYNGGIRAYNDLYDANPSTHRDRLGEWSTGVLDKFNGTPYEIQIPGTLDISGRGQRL
Kind of assay: radiolabelled lipid II hydrolysis, TLC with radioactivity scanner. The format is biochemical. The conditions noted are these: labelled compound ([14C] in GlcNAc moiety); 100 mM Tris-HCl pH 7.5, 20 mM MgCl2, 150 mM NaCl, 10 mM 2-mercaptoethanol, 0.2% DDM, 37 °C, lipid II 6–100 µM.

Structures are written as SMILES.

What is called Km is the substrate concentration at which the rate is half of its maximum.

Regarding `CC(=O)N[C@H]1[C@H](O[C@H]2[C@H](O[C@H](C)C(=O)N[C@@H](C)C(=O)N[C@H](CCC(=O)N[C@@H](CCC[C@@H](N)C(=O)O)C(=O)N[C@H](C)C(=O)N[C@H](C)C(=O)O)C(=O)O)[C@@H](NC(C)=O)[C@@H](OP(=O)(O)OP(=O)(O)OC/C=C(/C)CC/C=C(/C)CC/C=C(/C)CC/C=C(/C)CC/C=C(/C)CC/C=C(/C)CC/C=C(/C)CC/C=C(/C)CC/C=C(\C)CC/C=C(\C)CCC=C(C)C)O[C@@H]2CO)O[C@H](CO)[C@@H](O)[C@@H]1O` [lipid II, C55-PP-MurNAc(L-Ala-γ-D-Glu-meso-A2pm-D-Ala-D-Ala)-GlcNAc], the Km came to 55 µM.
